In ChEMBL document CHEMBL1149340, “Optimization and SAR for dual ErbB-1/ErbB-2 tyrosine kinase inhibition in the 6-furanylquinazoline series” (Bioorg Med Chem Lett, 2006) one finds IC50 data, which are given here for 23 compounds.

For test [1], the system named is BT-474. The experiment in a line: Inhibition of BT474 cell growth after 72 hrs. Type of test: functional, cell-based. Conditions: Homo sapiens, BT-474, 72 h.
Test [2] has as its system NCI-N87. In words: Inhibition of N87 cell growth after 72 hrs. It counts as functional, cell-based. The note with it: Homo sapiens, NCI-N87, 72 h.
The target in test [3] is Receptor tyrosine-protein kinase erbB-2 (Homo sapiens, UniProt P04626).
Test [4] concerns the target Epidermal growth factor receptor (Homo sapiens, UniProt P00533).
In test [5] the test system is HN5. The experiment in a line: cells. The note with it: Homo sapiens, HN5, 72 h.
Description: Inhibition of HN5 cell growth after 72 hrs
In test [6] the test system is HFF. In words: Inhibition of HFF cell growth. The note with it: Homo sapiens.

Receptor tyrosine-protein kinase erbB-2, sequence (P04626 whole entry): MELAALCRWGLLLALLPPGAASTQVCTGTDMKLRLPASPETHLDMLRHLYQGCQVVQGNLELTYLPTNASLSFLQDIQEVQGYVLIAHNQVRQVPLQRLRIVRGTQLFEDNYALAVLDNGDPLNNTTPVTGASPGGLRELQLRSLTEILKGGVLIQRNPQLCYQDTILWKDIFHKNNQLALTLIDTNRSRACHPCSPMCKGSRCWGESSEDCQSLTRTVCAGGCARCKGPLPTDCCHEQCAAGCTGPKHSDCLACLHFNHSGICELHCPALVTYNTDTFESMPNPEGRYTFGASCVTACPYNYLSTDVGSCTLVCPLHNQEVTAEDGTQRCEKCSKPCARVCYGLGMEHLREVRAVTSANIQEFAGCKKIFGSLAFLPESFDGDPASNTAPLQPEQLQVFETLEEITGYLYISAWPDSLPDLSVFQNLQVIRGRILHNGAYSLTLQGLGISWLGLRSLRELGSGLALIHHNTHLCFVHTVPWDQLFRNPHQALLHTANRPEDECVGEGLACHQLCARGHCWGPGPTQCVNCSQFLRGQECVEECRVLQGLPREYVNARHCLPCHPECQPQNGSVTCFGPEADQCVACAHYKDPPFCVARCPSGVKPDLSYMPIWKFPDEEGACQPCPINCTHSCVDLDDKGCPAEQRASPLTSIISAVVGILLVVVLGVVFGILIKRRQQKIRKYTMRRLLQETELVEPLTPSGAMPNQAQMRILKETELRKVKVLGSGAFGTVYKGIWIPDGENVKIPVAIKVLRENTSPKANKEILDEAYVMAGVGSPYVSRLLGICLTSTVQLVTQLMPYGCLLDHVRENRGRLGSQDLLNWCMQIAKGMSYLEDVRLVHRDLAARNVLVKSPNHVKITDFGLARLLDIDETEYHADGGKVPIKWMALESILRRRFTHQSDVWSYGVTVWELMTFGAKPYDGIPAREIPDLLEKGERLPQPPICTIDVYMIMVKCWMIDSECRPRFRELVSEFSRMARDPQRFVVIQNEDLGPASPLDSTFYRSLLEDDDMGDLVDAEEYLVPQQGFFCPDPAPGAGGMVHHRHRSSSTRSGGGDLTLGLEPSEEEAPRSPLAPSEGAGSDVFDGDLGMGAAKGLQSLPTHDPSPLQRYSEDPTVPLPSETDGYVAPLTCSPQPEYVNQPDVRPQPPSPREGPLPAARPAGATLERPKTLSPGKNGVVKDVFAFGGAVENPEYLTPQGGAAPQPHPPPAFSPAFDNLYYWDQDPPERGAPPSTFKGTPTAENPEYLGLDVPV
Epidermal growth factor receptor, sequence (P00533 whole entry): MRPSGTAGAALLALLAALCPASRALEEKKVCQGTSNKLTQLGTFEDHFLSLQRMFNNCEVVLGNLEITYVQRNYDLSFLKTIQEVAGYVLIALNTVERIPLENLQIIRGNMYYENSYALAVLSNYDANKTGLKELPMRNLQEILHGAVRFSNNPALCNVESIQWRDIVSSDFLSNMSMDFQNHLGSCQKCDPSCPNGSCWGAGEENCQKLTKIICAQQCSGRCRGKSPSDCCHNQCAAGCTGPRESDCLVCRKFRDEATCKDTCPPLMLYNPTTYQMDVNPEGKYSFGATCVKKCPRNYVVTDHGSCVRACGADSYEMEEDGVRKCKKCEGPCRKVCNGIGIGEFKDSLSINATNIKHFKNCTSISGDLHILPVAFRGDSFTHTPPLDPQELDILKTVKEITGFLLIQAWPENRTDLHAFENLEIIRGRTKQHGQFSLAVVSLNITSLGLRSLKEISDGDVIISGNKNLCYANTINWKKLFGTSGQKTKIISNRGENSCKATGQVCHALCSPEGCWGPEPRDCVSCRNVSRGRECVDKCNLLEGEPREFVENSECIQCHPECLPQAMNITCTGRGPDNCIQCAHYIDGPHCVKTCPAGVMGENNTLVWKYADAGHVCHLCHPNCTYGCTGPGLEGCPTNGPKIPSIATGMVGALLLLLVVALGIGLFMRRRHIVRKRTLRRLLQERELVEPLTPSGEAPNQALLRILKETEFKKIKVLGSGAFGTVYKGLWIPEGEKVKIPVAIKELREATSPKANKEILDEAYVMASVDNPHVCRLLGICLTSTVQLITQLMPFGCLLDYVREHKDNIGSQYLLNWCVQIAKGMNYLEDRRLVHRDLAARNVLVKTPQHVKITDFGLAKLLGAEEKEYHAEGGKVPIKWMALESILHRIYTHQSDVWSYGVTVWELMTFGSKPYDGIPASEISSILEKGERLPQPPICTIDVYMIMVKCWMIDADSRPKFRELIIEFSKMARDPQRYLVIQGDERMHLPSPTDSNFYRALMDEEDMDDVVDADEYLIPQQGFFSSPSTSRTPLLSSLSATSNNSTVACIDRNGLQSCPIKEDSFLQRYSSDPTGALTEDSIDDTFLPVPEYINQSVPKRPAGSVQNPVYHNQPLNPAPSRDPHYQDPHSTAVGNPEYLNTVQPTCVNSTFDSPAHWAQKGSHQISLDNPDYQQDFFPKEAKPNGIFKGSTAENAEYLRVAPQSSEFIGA

One may read the IC50 as the concentration that gives 50% inhibition. A high value points to weaker potency in that assay. As for `CS(=O)(=O)CCNCc1ccc(-c2ccc3ncnc(Nc4ccc(OCc5ccccc5)c(Cl)c4)c3c2)o1`, the IC50 is 250 nM in test [1]; 280 nM in test [2]; 22 nM in test [3]; 18 nM in test [4]; 250 nM in test [5].
Take `O=S(=O)(CCCCNCc1ccc(-c2ccc3ncnc(Nc4ccc(OCc5ccccc5)c(Cl)c4)c3c2)o1)c1ccccc1`: the IC50 in test [3] worked out at 38 nM; in test [4], 50 nM.
Take `[O-][S+]1CCN(Cc2ccc(-c3ccc4ncnc(Nc5ccc(OCc6ccccc6)c(F)c5)c4c3)o2)CC1`: the IC50 in test [1] was 1200 nM; in test [2], 1130 nM; in test [3], 35 nM; in test [4], 16 nM; in test [5], 1000 nM.
The corresponding values for `[O-][S+]1CCN(Cc2ccc(-c3ccc4ncnc(Nc5ccc(OCc6cccc(F)c6)c(C(F)(F)F)c5)c4c3)o2)CC1` are 3000 nM, 2090 nM, 141 nM, 89 nM and 1110 nM.
Take `CS(=O)(=O)CCN(CC#N)Cc1ccc(-c2ccc3ncnc(Nc4ccc(OCc5cccc(F)c5)c(Cl)c4)c3c2)o1` [GW616030X]: the IC50 in test [1] is 67 nM; in test [6], over 30000 nM; in test [3], 22 nM; in test [4], 27 nM.
With `CS(=O)(=O)CCNCc1ccc(-c2ccc3ncnc(Nc4ccc(OCc5cccc(F)c5)c(C(F)(F)F)c4)c3c2)o1` [GW576484X], the IC50 in test [1] was 4490 nM; in test [2], 2890 nM; in test [3] it was 220 nM; in test [4], 80 nM; in test [5] it was 1940 nM.
With `O=S(=O)(CCNCc1ccc(-c2ccc3ncnc(Nc4ccc(OCc5cccc(F)c5)c(Cl)c4)c3c2)o1)c1ccccc1`, the IC50 turned out to be 1040 nM in test [1]; 870 nM in test [2]; 30 nM in test [3]; 19 nM in test [4]; 1070 nM in test [5].
Take `CS(=O)(=O)CCN(Cc1ccccc1)Cc1ccc(-c2ccc3ncnc(Nc4ccc(OCc5cccc(F)c5)c(Cl)c4)c3c2)o1`: the IC50 in test [1] is 610 nM; in test [3] it was 141 nM.
Take `CS(=O)(=O)CCNCc1ccc(-c2ccc3ncnc(Nc4ccc(OCc5ccccc5)c(Br)c4)c3c2)o1`: the IC50 in test [1] came out at 270 nM; in test [2], 370 nM.
Turning to `CS(=O)(=O)CCNCc1ccc(-c2ccc3ncnc(Nc4ccc(OCc5cccc(F)c5)cc4)c3c2)o1`, the IC50 was found to be 770 nM in test [1]; 860 nM in test [2]; 31 nM in test [3]; 24 nM in test [4]; 840 nM in test [5].
Regarding `[O-][S+]1CCN(Cc2ccc(-c3ccc4ncnc(Nc5ccc(OCc6cccc(F)c6)c(Cl)c5)c4c3)o2)CC1`, the half-maximal inhibitory concentration (IC50) in test [1] turned out to be 100 nM; in test [2] it was 80 nM; in test [6], 8180 nM; in test [3], 18 nM; in test [4], 28 nM; in test [5], 60 nM.
Take `CS(=O)(=O)CCNCc1ccc(-c2ccc3ncnc(Nc4ccc(OCc5ccccc5)c(C(F)(F)F)c4)c3c2)o1`: the IC50 is 10100 nM in test [1]; 6500 nM in test [2]; 200 nM in test [3]; 160 nM in test [4]; 5900 nM in test [5].
As for `CCCN(CCS(C)(=O)=O)Cc1ccc(-c2ccc3ncnc(Nc4ccc(OCc5cccc(F)c5)c(Cl)c4)c3c2)o1`, the IC50 in test [1] worked out at 250 nM; in test [3] it was 20 nM; in test [4], 85 nM.
With `CS(=O)(=O)CCNCc1ccc(-c2ccc3ncnc(Nc4ccc(OCc5cccc(Br)c5)cc4)c3c2)o1`, the IC50 in test [1] was 2130 nM; in test [2], 3460 nM; in test [3] it was 100 nM; in test [4] it was 43 nM; in test [5] it was 2560 nM.
For the compound `CS(=O)(=O)CCNCc1ccc(-c2ccc3ncnc(Nc4ccc(OCc5cccc(F)c5)c(Cl)c4)c3c2)o1` [LAPATINIB], the IC50 in test [1] came to 80 nM; in test [2], 80 nM; in test [6], 9900 nM.
Turning to `CS(=O)(=O)CCOCc1ccc(-c2ccc3ncnc(Nc4ccc(OCc5cccc(F)c5)c(Cl)c4)c3c2)o1`, the IC50 was 170 nM in test [1], over 30000 nM in test [6], 17 nM in test [3] and 26 nM in test [4].
As for `CC(C)S(=O)(=O)CCNCc1ccc(-c2ccc3ncnc(Nc4ccc(OCc5cccc(F)c5)c(Cl)c4)c3c2)o1`, the IC50 was 200 nM in test [1], 130 nM in test [2], over 30000 nM in test [6] and 24 nM in test [3].
Turning to `CS(=O)(=O)CCNCc1ccc(-c2ccc3ncnc(Nc4ccc(OCc5ccccc5)cc4)c3c2)o1`, the half-maximal inhibitory concentration (IC50) in test [1] came to 280 nM; in test [2] it was 870 nM; in test [3] it was 26 nM; in test [4], 27 nM; in test [5] it was 650 nM.
On to `O=S(=O)(CCOCc1ccc(-c2ccc3ncnc(Nc4ccc(OCc5cccc(F)c5)c(Cl)c4)c3c2)o1)c1ccccc1` [GW615311X], for which the IC50 in test [3] came to 28 nM; in test [4] it was 25 nM.
Consider `CS(=O)(=O)CCNCc1ccc(-c2ccc3ncnc(Nc4ccc(OCc5cccc(C(F)(F)F)c5)cc4)c3c2)o1`, for which the IC50 in test [1] is 4200 nM; in test [2] it was 5200 nM; in test [3], 360 nM; in test [4], 91 nM; in test [5] it was 6900 nM.
`CCCS(=O)(=O)CCNCc1ccc(-c2ccc3ncnc(Nc4ccc(OCc5cccc(F)c5)c(Cl)c4)c3c2)o1`: the IC50 turned out to be 3140 nM in test [1]; 8660 nM in test [2]; 26 nM in test [3]; 21 nM in test [4]; 1600 nM in test [5].
As for `COc1cc(Nc2ncnc3ccc(-c4ccc(CNCCS(C)(=O)=O)o4)cc23)ccc1OCc1cccc(F)c1`, the IC50 in test [1] turned out to be 2070 nM; in test [2] it was 1900 nM.
For `[O-][S+]1CCN(Cc2ccc(-c3ccc4ncnc(Nc5ccc(OCc6ccccc6)c(Cl)c5)c4c3)o2)CC1`, the IC50 in test [1] came out at 420 nM; in test [2] it was 460 nM; in test [3] it was 23 nM; in test [4], 12 nM; in test [5], 320 nM.
